Patent US20240245770A1, “COMPOSITIONS AND METHODS FOR TREATING NEUROMUSCULAR DISORDERS” (The Regents of the University of California, priority 2019, published 2024)

Tested on: serum cytokine/chemokine/growth factor/ligands of ALS patient
Assay: Serum Luminex, before and after NAC treatment
Type: in vivo, human
Description: (§1) Serum Luminex. Serum from patients were used to determine the levels of cytokine/chemokine/growth factor/ligands secretion using multiplex luminex assay. Scatter plot was prepared using the levels of cytokine/chemokine/growth factor/ligands in serum obtained at different dates from patients as compared to controls.
Serum Luminex. Serum from patients were used to determine the levels of cytokine/chemokine/growth factor/ligands secretion using multiplex luminex assay.
as §1

[1] = H110 RS post NAC (second line, continues Table 138A)

Question: How did the “IFN-g, ALS patient compared to healthy twin” value (41 plex after NAC) turn out when CC(=O)N[C@@H](CS)C(=O)O [NAC, N-Acetyl-Cysteine] was run?
Answer: The value was 1.6.

Question: And the “IL-2, ALS patient compared to healthy twin” value (41 plex after NAC)?
Answer: Its value is 0.9.

Question: And the “IL-4, ALS patient compared to healthy twin” value (41 plex after NAC)?
Answer: Its value is 1.1.

Question: And the “IL-10, ALS patient compared to healthy twin” value (41 plex after NAC)?
Answer: The value was 0.95.

Question: And the “IL-12 p70, ALS patient compared to healthy twin” value (41 plex after NAC)?
Answer: The value was 1.3.

Question: What about the “IL-13, ALS patient compared to healthy twin” value (41 plex after NAC) of the same molecule?
Answer: Its value is 0.99.

Question: And the “TNF-a, ALS patient compared to healthy twin” value (41 plex after NAC)?
Answer: Its value is 2.2.

Question: What about the Franktalkine (After NAC, Ave JC 4/5 to 6/24) of the same molecule?
Answer: The Franktalkine was 34.8.

Question: What about the GM-CSF (After NAC, Ave JC 4/5 to 6/24) of the same molecule?
Answer: The GM-CSF was 68.8.

Question: And the IL-4 (After NAC, Ave JC 4/5 to 6/24)?
Answer: Its IL-4 is 12.8.

Question: And the IL-23 (After NAC, Ave JC 4/5 to 6/24)?
Answer: Its IL-23 is 125.6.

Question: And the ITAC (After NAC, Ave JC 4/5 to 6/24)?
Answer: Its ITAC is 13.34.

Question: What about the MIP-1b (After NAC, Ave JC 4/5 to 6/24) of the same molecule?
Answer: Its MIP-1b is 21.6.

Question: What about the IFNg (Ave JC 4/5 to 6/24) of the same molecule?
Answer: The IFNg was 7.25.

Question: What about the IL-1b (Ave JC 4/5 to 6/24) of the same molecule?
Answer: Its IL-1b is 0.82.

Question: And the IL-2 (Ave JC 4/5 to 6/24)?
Answer: The IL-2 was 1.45.

Question: What about the IL-6 (Ave JC 4/5 to 6/24) of the same molecule?
Answer: The IL-6 was 1.9.

Question: And the IL-7 (Ave JC 4/5 to 6/24)?
Answer: The IL-7 was 5.7.

Question: And the IL-8 (Ave JC 4/5 to 6/24)?
Answer: The IL-8 was 4.4.

Question: And the IL-10 (Ave JC 4/5 to 6/24)?
Answer: Its IL-10 is 7.8.

Question: What about the IL-12p70 (Ave JC 4/5 to 6/24) of the same molecule?
Answer: The IL-12p70 was 2.

Question: What about the IL-13 (Ave JC 4/5 to 6/24) of the same molecule?
Answer: The IL-13 was 4.32.

Question: And the IL-17A (Ave JC 4/5 to 6/24)?
Answer: The IL-17A was 4.

Question: What about the IL-21 (Ave JC 4/5 to 6/24) of the same molecule?
Answer: Its IL-21 is 0.7.

Question: And the MIP-1a (Ave JC 4/5 to 6/24)?
Answer: Its MIP-1a is 11.5.

Question: And the MIP-3a (Ave JC 4/5 to 6/24)?
Answer: Its MIP-3a is 8.1.

Question: What about the TNFa (Ave JC 4/5 to 6/24) of the same molecule?
Answer: Its TNFa is 8.2 pg/mL.

Question: And the Franktalkine (Ave JC sera for NAC infusion)?
Answer: The Franktalkine was 34.8 pg/mL.

Question: And the GM-CSF (Ave JC sera for NAC infusion)?
Answer: The GM-CSF was 68.8 pg/mL.

Question: What about the IFNg (Ave JC sera for NAC infusion) of the same molecule?
Answer: The IFNg was 7.25 pg/mL.

Question: And the IL-1b (Ave JC sera for NAC infusion)?
Answer: The IL-1b was 0.82 pg/mL.

Question: What about the IL-2 (Ave JC sera for NAC infusion) of the same molecule?
Answer: Its IL-2 is 1.45 pg/mL.

Question: And the IL-4 (Ave JC sera for NAC infusion)?
Answer: The IL-4 was 12.8 pg/mL.

Question: What about the IL-6 (Ave JC sera for NAC infusion) of the same molecule?
Answer: The IL-6 was 1.9 pg/mL.

Question: What about the IL-7 (Ave JC sera for NAC infusion) of the same molecule?
Answer: The IL-7 was 5.7 pg/mL.

Question: And the IL-8 (Ave JC sera for NAC infusion)?
Answer: Its IL-8 is 4.4 pg/mL.

Question: And the IL-10 (Ave JC sera for NAC infusion)?
Answer: Its IL-10 is 7.8 pg/mL.

Question: And the IL-12p70 (Ave JC sera for NAC infusion)?
Answer: Its IL-12p70 is 2 pg/mL.

Question: What about the IL-13 (Ave JC sera for NAC infusion) of the same molecule?
Answer: Its IL-13 is 4.32 pg/mL.

Question: What about the IL-17A (Ave JC sera for NAC infusion) of the same molecule?
Answer: Its IL-17A is 4 pg/mL.

Question: What about the IL-21 (Ave JC sera for NAC infusion) of the same molecule?
Answer: Its IL-21 is 0.7 pg/mL.

Question: What about the IL-23 (Ave JC sera for NAC infusion) of the same molecule?
Answer: Its IL-23 is 125.6 pg/mL.

Question: What about the ITAC (Ave JC sera for NAC infusion) of the same molecule?
Answer: The ITAC was 13.34 pg/mL.

Question: And the MIP-1a (Ave JC sera for NAC infusion)?
Answer: The MIP-1a was 11.5 pg/mL.

Question: And the MIP-1b (Ave JC sera for NAC infusion)?
Answer: The MIP-1b was 21.6 pg/mL.

Question: What about the MIP-3a (Ave JC sera for NAC infusion) of the same molecule?
Answer: Its MIP-3a is 8.1 pg/mL.

Question: And the TNFa (Ave JC sera for NAC infusion)?
Answer: The TNFa was 8.2 pg/mL.

Question: What about the CMD [1] of the same molecule?
Answer: The CMD was 1391 pg/mL.

Question: And the GRO [1]?
Answer: Its GRO is 2246 pg/mL.

Question: What about the IFNg [1] of the same molecule?
Answer: Its IFNg is 20.14 pg/mL.

Question: What about the IL-1Ra [1] of the same molecule?
Answer: Its IL-1Ra is 247.51 pg/mL.

Question: What about the IL-1a [1] of the same molecule?
Answer: Its IL-1a is 43.39 pg/mL.

Question: What about the IL-1b [1] of the same molecule?
Answer: The IL-1b was 6.64 pg/mL.

Question: And the IL-3 [1]?
Answer: Its IL-3 is 7.88 pg/mL.

Question: And the IL-4 [1]?
Answer: The IL-4 was 53.81 pg/mL.

Question: And the IL-5 [1]?
Answer: Its IL-5 is 38.12 pg/mL.

Question: What about the IL-6 [1] of the same molecule?
Answer: The IL-6 was 23.49 pg/mL.

Question: What about the IL-7 [1] of the same molecule?
Answer: Its IL-7 is 21.7 pg/mL.

Question: And the IL-8 [1]?
Answer: Its IL-8 is 16.64 pg/mL.

Question: And the IL-9 [1]?
Answer: The IL-9 was 16.88 pg/mL.

Question: What about the IL-10 [1] of the same molecule?
Answer: The IL-10 was 97.95 pg/mL.

Question: And the IL-12p40 [1]?
Answer: The IL-12p40 was 82.26 pg/mL.

Question: What about the IL-12p70 [1] of the same molecule?
Answer: Its IL-12p70 is 13.65 pg/mL.

Question: And the IL-13 [1]?
Answer: Its IL-13 is 33.66 pg/mL.

Question: And the IL-15 [1]?
Answer: The IL-15 was 23.97 pg/mL.

Question: And the IL-17a [1]?
Answer: The IL-17a was 12.34 pg/mL.

Question: And the IP-10 [1]?
Answer: Its IP-10 is 646.43 pg/mL.

Question: And the L-2 [1]?
Answer: The L-2 was 14.54 pg/mL.

Question: And the MCP1 [1]?
Answer: The MCP1 was 846.7 pg/mL.

Question: What about the MCP3 [1] of the same molecule?
Answer: The MCP3 was 16.88 pg/mL.

Question: What about the MIP1a [1] of the same molecule?
Answer: The MIP1a was 17.37 pg/mL.

Question: What about the MIP1b [1] of the same molecule?
Answer: Its MIP1b is 34.07 pg/mL.

Question: What about the PDGF-AB/BB [1] of the same molecule?
Answer: The PDGF-AB/BB was 23823 pg/mL.

Question: And the PDGFaa [1]?
Answer: Its PDGFaa is 8654 pg/mL.

Question: What about the Rantes [1] of the same molecule?
Answer: The Rantes was 9480 pg/mL.
